A short description of this series: gradient 5% acetonitrile 3 min, to 50% in 2 min, to 85% in 15 min, held 3 min, 100 µL/min. Conditions: column: Zorbax Extend-C18 2.1 x 50 mm; eluents: water / acetonitrile, 0.1% formic acid. In a few lines:
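Each retention time is based on an adduct peak selected computationally and verified by manual inspection. Measurements used HPLC–quadrupole time-of-flight mass spectrometry in positive and negative ionization mode on mixtures of ~100 pure standards. Chromatography ran on a Zorbax Extend-C18 column (2.1 × 50 mm, 1.8 μm) at 100 μL/min with water and acetonitrile, each containing 0.1% formic acid, and dead and dwell volumes of 40 μL and 900 μL.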
The molecule `O=C(NCc1cc(F)cc(F)c1)c1ccc(-c2cccs2)nc1` registered an RP-LC retention time of 925 s.
The molecule `O=C1CCCN1CCCN(CC(=O)N1CCNCC1)C(=O)c1cccc(Cl)c1` yielded an RP-LC retention time of 586 s.
`COc1ccc(C2(CNS(=O)(=O)c3ccc4c(c3)OCCO4)CCOCC2)cc1` registered an RP-LC retention time of 785 s.
Molecule `Cc1cccc(C)c1NC(=O)Cn1c(C)nc2c(sc3nc(-c4ccccc4)ccc32)c1=O` had an RP-LC retention time of 1080 s.
`CCCCN1C(=O)C(C)(C(=O)Nc2cc(C)ccc2C)Oc2cccnc21` (stereo not drawn) came in with an RP-LC retention time of 1110 s.
`CCn1c(N2CCCC(C(=O)NCC3CCN(Cc4cccc(F)c4)CC3)C2)cc(=O)n(C)c1=O` (stereo not drawn) displayed an RP-LC retention time of 635 s.
`CCN1CCn2cc(C(=O)NCc3ccc(SC)cc3)nc2C1` returned an RP-LC retention time of 596 s.
The result for `Cc1cc(C(=O)NC2CC2)no1` reads 628 s.
`COc1cccc(C(=O)Nc2c3c(nn2C(C)(C)C)CS(=O)(=O)C3)c1` had an RP-LC retention time of 752 s.
For the molecule `O=C(Nc1ccc2c(c1)OCCO2)N1CCc2nn(CC3CC3)c(=O)n2CC1`, the RP-LC retention time was 703 s.
`COc1ccc(CCS(=O)(=O)NCC2(O)CCOCC2)cc1`: the RP-LC retention time was found to be 758 s.
`CCn1c(-c2ccccc2)cc(C(=O)N(C)C)c1C`: the RP-LC retention time came to 697 s.
In the case of `Cc1ccn2c(=O)c(C(=O)Nc3nc(C)cs3)cnc2c1`, the RP-LC retention time worked out at 673 s.
Molecule `COc1ccc2[nH]cc(CCN3CC(C(=O)Nc4ccc5c(c4)CCC5)CC3=O)c2c1` (stereo not drawn) displayed an RP-LC retention time of 841 s.
As to `C=Cc1ccc(Cn2cccc(S(=O)(=O)N3CCCC3)c2=O)cc1`, the RP-LC retention time amounted to 886 s.
On to `Cc1cc(C)cc(NC(=O)C2CCCN(c3nccnc3Sc3ccccc3)C2)c1` (stereo not drawn), for which the RP-LC retention time amounted to 1200 s.
As to `CCn1ccc2oc(C)c(C(=O)NCc3cc(C)ccc3C)c2c1=O`, the RP-LC retention time stood at 878 s.
The result for `CCn1c(=O)c(N2CCC(NC(=O)Nc3ccccc3Br)CC2)nc2ccccc21` reads 1030 s.
`COc1cccc(-c2ccc(=O)n(CCc3nc(-c4cccnc4)no3)n2)c1` returned an RP-LC retention time of 746 s.
`O=C(Nc1ccccc1)N1CCC(n2cnc3c(Cl)cccc3c2=O)CC1` came in with an RP-LC retention time of 784 s.
The result for `Cc1ccc(NC(=O)N(C)CCc2noc(COc3ccccc3F)n2)c(C)c1` reads 922 s; that for `Cc1cc(-c2nnc(-c3ccccc3)o2)c(C)n1CC(=O)NC1CCCC1`, 886 s.
Molecule `CCC(C)N(CC(=O)N1CCc2sccc2C1COc1cccc(F)c1)C(C)=O` (stereo not drawn) had an RP-LC retention time of 754 s.
`C=CCn1c(=O)c2ccccc2n(Cc2nc(-c3ccc(OC(C)C)cc3)no2)c1=O` came in with an RP-LC retention time of 1130 s.
The molecule `CC(=O)Nc1ccc(NC(=O)[C@H]2C[C@H]3CCCN3[C@@]23C(=O)N(C)c2ccccc23)cc1` had an RP-LC retention time of 572 s.
As for `O=C(CCCS(=O)(=O)c1ccc(Cl)cc1)Nc1ccc([N+](=O)[O-])cc1`, the RP-LC retention time stood at 695 s.
With `CCn1cc(S(=O)(=O)N2CCC[C@H]2c2nc(-c3ccc(F)cc3)n[nH]2)cn1` the figure was 714 s; with `CC(C(=O)NCCCN1CCCCCC1)n1c(=O)c(C(F)(F)F)nc2ccccc21` (stereo not drawn), 611 s; with `O=C([C@@H]1C[C@H](F)CN1C(=O)Nc1ccc(Br)cc1)N1CCCCC1`, 725 s.
As to `CCn1cc(-c2nc(C)c(C(=O)NCc3cccc(F)c3)s2)c2cccnc21`, the RP-LC retention time came to 947 s.
With `Cc1nnc(-c2c(S(=O)(=O)NCc3ccco3)c(C)n(C)c2C)o1` the figure was 729 s; with `Cc1nc(CNC(=O)C2CCN(C(=O)Nc3ccc(Br)cc3F)CC2)cs1`, 699 s; with `Cc1cc(OCC(=O)Nc2ccc3c(c2)OCO3)nc(-c2ccc(F)cc2)n1`, 960 s.

The values above are taken from the METLIN SMRT retention time set (Domingo-Almenara et al. 2019).
